# Molecular target: T1, plasma albumin (Rattus norvegicus, UniProt P02770)
# T1 construct: from tissue; host or cells: plasma of SD rats (carbon tetrachloride cirrhosis model and healthy controls)
# Assay: L-tryptophan binding rate to plasma albumin (ultrafiltration, LC/MS)
# Type: in vitro ADME
# Conditions: 37° C., n=2
# Procedure: As a cirrhosis model rat, 25-week-old male SD rats (n=2) were prepared by administering carbon tetrachloride twice a week for 18 consecutive weeks and used, and 10-week-old healthy SD rats (n=2) were used as a control.
# The plasma was preincubated at 37° C. for 20 min, 10 μL of L-tryptophan solution (10 mM) was added per 1 mL of plasma and they were mixed well (A). Solution A (450 μL) was dispensed to an ultrafiltration tube (Millipore, molecular weight 30,000 cut) and centrifuged at 3,000 g for 5 min at 37° C. to give 50 μL of filtrate (B) and 50 μL of unfiltrated solution (C). An equivalent amount of 8% (w/v) TCA solution was added to each of A and B, mixed and the mixture was centrifuged at room temperature and 3,000 g for 5 min. A protein-free supernatant was recovered. Thereto was added a 4-fold amount of 0.125% (v/v) heptafluorobutyric acid (HFBA) solution, mixed, diluted with 0.1% HFBA so that the concentration would fall within the range defined by the standard curve. Then, the concentration of L-tryptophan in each sample was quantified by the LC/MS method. The L-tryptophan binding rate to plasma albumin was shown by [1-(Trp concentration (B)/Trp concentration (A))]×100(%). The recovery rate was calculated by [Trp concentration (B)×50 μL+Trp concentration (C)×400 μL]/[Trp concentration (A)×450 μL]×100(%).
# T1 sequence (P02770 25-608): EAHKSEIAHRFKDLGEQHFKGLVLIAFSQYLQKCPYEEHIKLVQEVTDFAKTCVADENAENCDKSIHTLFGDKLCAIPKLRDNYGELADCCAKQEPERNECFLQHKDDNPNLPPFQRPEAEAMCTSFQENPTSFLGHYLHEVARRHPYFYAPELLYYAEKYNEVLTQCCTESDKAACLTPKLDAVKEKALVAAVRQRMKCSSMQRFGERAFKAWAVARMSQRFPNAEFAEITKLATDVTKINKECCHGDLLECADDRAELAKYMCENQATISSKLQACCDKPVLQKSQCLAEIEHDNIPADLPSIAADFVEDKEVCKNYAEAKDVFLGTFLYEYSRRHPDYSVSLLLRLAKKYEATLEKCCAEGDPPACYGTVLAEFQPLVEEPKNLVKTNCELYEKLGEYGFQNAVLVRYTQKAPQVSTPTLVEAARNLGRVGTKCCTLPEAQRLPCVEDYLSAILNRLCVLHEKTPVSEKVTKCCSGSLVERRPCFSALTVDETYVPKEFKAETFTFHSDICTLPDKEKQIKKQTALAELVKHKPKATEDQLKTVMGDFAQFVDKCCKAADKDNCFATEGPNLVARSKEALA
smiles,measurement,setting,value
N[C@@H](Cc1c[nH]c2ccccc12)C(=O)O [L-tryptophan],L-tryptophan binding rate to albumin,"plasma of cirrhosis model rats (carbon tetrachloride, 18 weeks)",48%
same,L-tryptophan binding rate to albumin,plasma of normal (healthy SD) rats,83%

# Reference: US20080161399A1 (Ajinomoto Co., Inc., priority 2005, published 2008)
